According to PMC9654533, “Potent Alkaline Phosphatase Inhibitors, Pyrazolo-Oxothiazolidines: Synthesis, Biological Evaluation, Molecular Docking, and Kinetic Studies” (International Journal of Molecular Sciences, 2022):
“Also recorded” adds a separate entry of the source.

Tests used:
[1] = target: T1, calf intestinal alkaline phosphatase (CIAP) (Bos taurus, UniProt P19111); assay: Alkaline phosphatase inhibition assay (spectrophotometric, p-NPP substrate); format: biochemical; settings: for IC50: CIAP, p-NPP substrate, pH 9.5, 37 °C, mean ± SEM
T1 sequence (P19111 20-533): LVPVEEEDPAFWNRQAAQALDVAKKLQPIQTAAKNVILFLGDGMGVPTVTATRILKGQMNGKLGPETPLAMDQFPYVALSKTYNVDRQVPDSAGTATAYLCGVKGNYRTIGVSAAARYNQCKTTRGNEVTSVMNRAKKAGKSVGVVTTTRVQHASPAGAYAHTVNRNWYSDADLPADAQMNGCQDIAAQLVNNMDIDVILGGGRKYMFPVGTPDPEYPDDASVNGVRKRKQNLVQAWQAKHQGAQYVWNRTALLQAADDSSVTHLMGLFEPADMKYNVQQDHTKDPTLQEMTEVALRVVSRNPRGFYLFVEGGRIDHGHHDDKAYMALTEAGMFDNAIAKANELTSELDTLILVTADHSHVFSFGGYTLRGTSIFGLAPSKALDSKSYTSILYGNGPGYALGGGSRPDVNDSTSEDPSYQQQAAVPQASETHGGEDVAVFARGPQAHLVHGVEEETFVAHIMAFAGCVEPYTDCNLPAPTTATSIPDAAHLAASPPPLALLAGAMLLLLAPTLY
Experimental: As previously mentioned, spectrophotometric analysis was used to evaluate the activity of calf intestinal alkaline phosphatase (CIAP). The reaction mixture contained 50 mM Tris-HCl buffer (5 mM MgCl2, 0.1 mM ZnCl2 pH 9.5), the 10 µL compound, and it was preincubated for 10 min by adding 5 µL of CIAP (0.025 U/mL). Then, 10 µL of a substrate (0.5 mM p-NPP (para nitrophenyl phosphate disodium salt)) was delivered to initiate the response, and therefore the assay mixture became incubated once more for 30 min at 37 °C. The change in absorbance of released p-nitrophenolate was monitored at 405 nm, using a 96-well microplate reader (Thermo Scientific Multiskan GO, USA). All the experiments were repeated three times in a triplicate manner. […] The inhibition activity was calculated according to the following equation: Inhibition (%)=[(Blank−Sample)/Blank]×100
For calculation of the IC50 values, 6–8 serial dilutions were used and the results examined using the non-linear regression analysis of GraphPad Prism 5 [69].

[2] = DPPH free radical scavenging assay; settings: 100 µg/mL
Experimental: Free radical scavenging activity was determined by modifying the method by DPPH assay. The assay solution composed of the 100 μL of DPPH (150 μM) and 20 μL of the sample (100 μg/mL) was introduced to gain the final volume of each well up to 200 μL with methyl alcohol. Then, it was incubated in the dark at room temperature for the following half-hour. Ascorbic acid (Vitamin C) was used as a reference inhibitor. The measurements were performed by using a microplate reader (Thermo Scientific Multiskan GO, USA) at 517 nm. Each experiment was carried out in triplicate.

[3] = target: T1, calf intestinal alkaline phosphatase (CIAP); assay: Kinetic mechanism analysis (Lineweaver-Burk plot); format: biochemical
Experimental: The inhibitor (7g), and substrate p-NPP concentrations were used at 0.00, 0.023, 0.045 and 0.091 µM, 10, 5, 2.5, 1.25, 0.625 and 0.3125 mM, respectively. The pre-incubation time and other conditions were the same as those mentioned in the section on the CIAP assay. Maximal initial velocities were determined from the initial linear portion of absorbances up to 10 min after the addition of enzyme per minute interval. The inhibition type of the enzyme was assayed by the Lineweaver–Burk plot of inverse velocities (1/V) versus the inverse of substrate concentration 1/[S] mM^−1. The EI dissociation constant Ki was determined by a secondary plot of 1/V versus inhibitor concentration.

ALP = ALP inhibitors; cited from earlier work
MTT cell viability assay = format: cell-based; settings: human, MG-63 osteosarcoma cells, MG-63 cells
Experimental: The human osteosarcoma MG-63 cells were acquired from the Korean Cell Line Bank (Seoul, Korea). The MG-63 cell lines were incubated in the humidified atmosphere at 37 °C containing 5% CO2 and maintained in the DMEM (Sigma, St. Louis, MO, USA), supplemented with 10% fetal bovine serum (FBS, WELGENE, Korea) and 50 unit/mL penicillin (Sigma) and 50 μg/mL streptomycin (Sigma). The medium was completely renewed every two days. The synthesized compounds were completely dissolved in dimethyl sulfoxide (DMSO) and further diluted to various concentrations (0, 0.5, 1, 2, and 4 µM). The control groups were treated with the same amount of DMSO. MTT assay technique was applied to check the toxic effect of our compounds. The MG-63 cell lines were seeded onto 96-well plates at a density of 0.4 × 10^5 cells/well with the medium for 24 h. After reaching 50% density, the cells were exposed to synthesized target compounds at the dose of 0, 0.5, 1, 2, and 4 µM for 24 h in media. […] After 24 h, the cell sustained 100 μL DMEM containing of 0.5 mg/mL 3-(4,5-dimethylthiazol-2-yl)-2,5-diphenyltetrazolium bromide (MTT) at 37 °C for 4 h. Then, the purple formazan crystals were dissolved with 100 μL of buffer (10% SDS, 0.01 N HCl). Finally, the absorbance was measured at 570 nm using a microplate reader (Thermo Fisher, Waltham, MA, USA).

[4] = tested on: tissue-specific isozymes (PLALP, GCALP, and IALP) versus L/B/K ALPs; parameters: method as in PMID 2178806; settings: cited from earlier work

In the case of `CCOC(=O)C=C1SC(N2N=C(c3ccccc3)CC2c2ccc(C)cc2)=NC1=O` (stereo not drawn) [Compound 7b, Ethyl-2-(4-oxo-2-(3-phenyl-5-(p-tolyl)-4,5-dihydro-1H-pyrazol-1-yl)thiazol-5(4H)-ylidene)acetate], the IC50 [1] is reported as 2300 ± 151 nM and the melting point is reported as 226 to 228 °C.

With `CCOC(=O)C=C1SC(N2N=C(c3ccc(OC)cc3)CC2c2ccc(OCc3ccccc3)c(OC)c2)=NC1=O` (stereo not drawn) [Compound 7g, Ethyl-2-(2-(5-(4-(benzyloxy)-3-methoxyphenyl)-3-(4-methoxyphenyl)-4,5-dihydro-1H-pyrazol-1-yl)-4-oxothiazol-5(4H)-ylidene)acetate] the IC50 [1] was 45 ± 4 nM, the “fold more active than monopotassium phosphate (IC50 ratio)” value ([1]; versus standard reference monopotassium phosphate) was 116 fold and the “DPPH free radical scavenging (inhibition)” value [2] was 29.7%. For the same compound, the melting point was 228 to 230 °C, the “Inhibition Type” value ([3]; Lineweaver-Burk plot, substrate p-NPP) was “non-competitively; also recorded: Non-Competitive” and the Vmax ([3]; inhibitor 7g concentration 0.023 µM) was 0.0014 ΔA/Min. The Vmax ([3]; inhibitor 7g concentration 0.045 µM) was 0.0011 ΔA/Min, the Vmax ([3]; inhibitor 7g concentration 0.091 µM) was 0.0009 ΔA/Min and the Ki ([3]; secondary plot of slope versus inhibitor concentration, read-out: Ki (EI dissociation constant)) was 93 nM. It also gave a Km ([3]; substrate p-NPP, inhibitor 7g concentration 0.023 µM) of 500 µM, a Km ([3]; substrate p-NPP, inhibitor 7g concentration 0.045 µM) of 500 µM and a Km ([3]; substrate p-NPP, inhibitor 7g concentration 0.091 µM) of 500 µM.

In the case of `Cn1c(=O)c2[nH]cnc2n(C)c1=O` [theophylline], the Ki (ALP) is given as 82000 nM.

In the case of `CCOC(=O)C=C1SC(N2N=C(c3ccccc3)CC2c2ccc(OCc3ccccc3)c(OC)c2)=NC1=O` (stereo not drawn) [Compound 7d, Ethyl-2-(2-(5-(4-(benzyloxy)-3-methoxyphenyl)-3-phenyl-4,5-dihydro-1H-pyrazol-1-yl)-4-oxothiazol-5(4H)-ylidene)acetate], the IC50 [1] is reported as 293 ± 39 nM and the melting point is reported as 202 to 204 °C.

Work on `CCOC(=O)C=C1SC(N2N=C(c3ccccc3)CC2c2ccc(OC)cc2)=NC1=O` (stereo not drawn) [Compound 7c, Ethyl-2-(2-(5-(4-methoxyphenyl)-3-phenyl-4,5-dihydro-1H-pyrazol-1-yl)-4-oxothiazol-5(4H)-ylidene)acetate] yielded an IC50 [1] of 198 ± 18 nM and a melting point of 236 to 238 °C.

`CCOC(=O)C=C1SC(N2N=C(c3ccc(OC)cc3)CC2c2ccc(Br)cc2)=NC1=O` (stereo not drawn) [Compound 7h, Ethyl-2-(2-(5-(4-bromophenyl)-3-(4-methoxyphenyl)-4,5-dihydro-1H-pyrazol-1-yl)-4-oxothiazol-5(4H)-ylidene)acetate] gave an IC50 [1] of 907 ± 41 nM and a melting point of 218 to 220 °C.

In the case of `CCOC(=O)C=C1SC(N2N=C(c3ccccc3)CC2c2ccc(Cl)cc2)=NC1=O` (stereo not drawn) [Compound 7l, Ethyl-2-(2-(5-(4-chlorophenyl)-3-phenyl-4,5-dihydro-1H-pyrazol-1-yl)-4-oxothiazol-5(4H)-ylidene)acetate], the IC50 [1] is reported as 51 ± 19 nM and the melting point is reported as 251 to 253 °C.

In the case of `CCOC(=O)C=C1SC(N2N=C(c3ccc(OC)cc3)CC2c2ccc(F)cc2)=NC1=O` (stereo not drawn) [Compound 7i, Ethyl-2-(2-(5-(4-fluorophenyl)-3-(4-methoxyphenyl)-4,5-dihydro-1H-pyrazol-1-yl)-4-oxothiazol-5(4H)-ylidene)acetate], the IC50 [1] is reported as 315 ± 17 nM and the melting point is reported as 210 to 212 °C.

With `CCOC(=O)C=C1SC(N2N=C(c3ccc(OC)cc3)CC2c2ccc(Cl)cc2)=NC1=O` (stereo not drawn) [Compound 7m, Ethyl-2-(2-(5-(4-chlorophenyl)-3-(4-methoxyphenyl)-4,5-dihydro-1H-pyrazol-1-yl)-4-oxothiazol-5(4H)-ylidene)acetate] the IC50 [1] was 302 ± 4 nM, the melting point was 220 to 222 °C and the viability at 24 h, 4 µM (MTT cell viability assay) was at most 70%.

`CCOC(=O)C=C1SC(N2N=C(c3ccc(OC)cc3)CC2c2ccc(OC)cc2)=NC1=O` (stereo not drawn) [Compound 7k, Ethyl-2-(2-(3,5-bis(4-methoxyphenyl)-4,5-dihydro-1H-pyrazol-1-yl)-4-oxothiazol-5(4H)-ylidene)acetate] gave an IC50 [1] of 75 ± 5 nM and a melting point of 208 to 210 °C.

`CCOC(=O)C=C1SC(N2N=C(c3ccc(OC)cc3)CC2c2ccccc2)=NC1=O` (stereo not drawn) [Compound 7j, Ethyl-2-(2-(3-(4-methoxyphenyl)-5-phenyl-4,5-dihydro-1H-pyrazol-1-yl)-4-oxothiazol-5(4H)-ylidene)acetate] showed an IC50 [1] of 434 ± 11 nM, a melting point of 167 to 169 °C and a viability at 24 h, 4 µM (MTT cell viability assay) of at most 70%.

Compound `CCOC(=O)C=C1SC(N2N=C(c3ccc(OC)cc3)CC2c2ccc(C)cc2)=NC1=O` (stereo not drawn) [Compound 7e, Ethyl-2-(2-(3-(4-methoxyphenyl)-5-(p-tolyl)-4,5-dihydro-1H-pyrazol-1-yl)-4-oxothiazol-5(4H)-ylidene)acetate] has an IC50 [1] of 228 ± 12 nM, a melting point of 208 to 210 °C and a viability at 24 h, 4 µM (MTT cell viability assay) of at most 70%.

In the case of `N[C@@H](Cc1ccccc1)C(=O)O` [L-phenylalanine], the “sensitivity of inhibition of tissue-specific isozymes (PLALP, GCALP, IALP) relative to L/B/K ALPs” value [4] is given as 30 times.

For `C#Cc1cccc(Nc2ncnc3cc(OCCOC)c(OCCOC)cc23)c1` [erlotinib, reference compound], the viability at 24 h, 2 µM (MTT cell viability assay; first three treatments (0.5, 1, 2 µM)) was over 90%.

`CCOC(=O)C=C1SC(N2N=C(c3ccc(OC)cc3)CC2c2ccc(Cl)cc2Cl)=NC1=O` (stereo not drawn) [Compound 7f, Ethyl-2-(2-(5-(2,4-dichlorophenyl)-3-(4-methoxyphenyl)-4,5-dihydro-1H-pyrazol-1-yl)-4-oxothiazol-5(4H)-ylidene)acetate] showed an IC50 [1] of 566 ± 48 nM and a melting point of over 260 °C.

For `c1ccc([C@H]2CN3CCSC3=N2)cc1` [levamisole], the Ki (ALP) is listed as 16000 nM.

`CCOC(=O)C=C1SC(N2N=C(c3ccccc3)CC2c2ccc(Br)cc2)=NC1=O` (stereo not drawn) [Compound 7a, Ethyl-2-(2-(5-(4-bromophenyl)-3-phenyl-4,5-dihydro-1H-pyrazol-1-yl)-4-oxothiazol-5(4H)-ylidene)acetate] gave an IC50 [1] of 53 ± 1 nM and a melting point of 242 to 244 °C.

Compound `CCOC(=O)C=C1SC(N2N=C(c3ccccc3)CC2c2ccccc2)=NC1=O` (stereo not drawn) [Compound 7n, Ethyl-2-(2-(3,5-diphenyl-4,5-dihydro-1H-pyrazol-1-yl)-4-oxothiazol-5(4H)-ylidene)acetate] has an IC50 [1] of 2990 ± 734 nM and a melting point of 216 to 218 °C.
